Entries after “also recorded” stand apart in the source; their conditions may differ. Marks after values point to notes of the source that are not given here.
Columns and labels:
[1] = test system: DOHH2 human tumor xenograft; experiment: CAS024 combined with bendamustine in subcutaneous DOHH2 xenografts in SCID mice; type: in vivo; settings: CAS024 10 μg IV days 0, 4, 8; Bendamustine 10 mg/kg IP days 0, 2, 4, 7, 9
Method: Establishment of tumor xenografts and sorting into treatment groups.
Monitoring and endpoints. Mice were monitored daily by visual inspection. […] Tumor volumes were calculated as described above.

CD37 [2] = molecular target: T1, CD37 (Homo sapiens, UniProt P11049); experiment: FACS competitive binding / cross blocking of FITC-conjugated anti-CD37 on BJAB cells; settings: FIGS. 5A-5E
T1 sequence (P11049 1-281): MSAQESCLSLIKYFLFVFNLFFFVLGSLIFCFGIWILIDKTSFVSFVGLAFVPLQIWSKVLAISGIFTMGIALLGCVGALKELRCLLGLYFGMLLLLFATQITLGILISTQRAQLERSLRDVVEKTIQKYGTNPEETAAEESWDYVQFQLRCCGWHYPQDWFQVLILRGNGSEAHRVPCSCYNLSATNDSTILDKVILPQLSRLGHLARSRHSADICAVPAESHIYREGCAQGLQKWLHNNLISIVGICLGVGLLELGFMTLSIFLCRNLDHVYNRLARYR
Method: FITC labeled antibody conjugates were titrated from 10 ng/mL to 10 μg/mL in an initial binding study to determine the optimal amount to use in the blocking studies. The level chosen was just below saturating amounts, and was kept constant in the subsequent assays, while levels of blocking antibody were increased over a 10-fold range. Data were plotted as percent of maximal binding versus concentration of blocking antibody, so that higher levels indicate less efficient blocking, while lower levels indicate more efficient blocking activity.
For competitive binding assays, 2.5×10^5 BJAB cells were incubated in 96-well V-bottom plates in staining media (PBS with 2% mouse sera) with the FITC-conjugated anti-CD37 mAbs at 1.25 μg/mL in the presence of unconjugated anti-CD37 MAb at the indicated concentrations (2.5, 1.25, 0.6, or 0.3 μg/ml) or staining media for 45 minutes on ice in the dark. Blocking antibodies and FITC labeled antibody conjugates were added to reactions prior to addition of cells. The cells were then washed […] with PBS and fixed with 1% paraformaldehyde (USB, Cleveland, Ohio). The treated cells were analyzed by flow cytometry using a FACsCalibur instrument and CellQuest software (BD Biosciences, San Jose, Calif.). […]

[3] = test system: chronic lymphocytic leukemia (CLL) cells; settings: in vitro; cited from earlier work
[4] = test system: DOHH2 human tumor xenograft; experiment: CAS-024 and Rituxan as single agents in established DOHH2 xenograft model in SCID mice; type: in vivo; settings: for Death (other than for Tumor Size Sacrifice) / Median Survival Time: 200 μg IP days 0, 4, 8; for Median Survival Time: cumulative 600 μg; for mean tumor volume compared with human IgG treated group: 200 μg IP, day 4 through day 11
Method: The objective of this study was to examine the efficacy of CAS-024 and RITUXAN® (rituximab) as single agents in a model of established human tumor (DOHH2) xenografts in SCID mice.
Mice were monitored daily by visual inspection. […] Tumor volumes were calculated as described above. Tumor volumes on the last day that all mice were alive in each group were also expressed in terms of tumor volumes relative to day 0, using the formula: […]

Rec-1 cells [5] = experiment: Rec-1 growth inhibition (ATP viable cell detection), combination index with chemotherapeutic agents; type: cell-based, human; settings: 96 hours
Method: Rec-1 cells, a CD37+ human B cell line established from a patient with mantle cell lymphoma, were tested for growth inhibition in response to crosslinked CAS-024 in the presence or absence of doxorubicin, vincristine, or fludarabine (see FIG. 7). CAS-024 was preincubated with anti-human IgG F(ab)′2 to crosslink the protein. Cells were cultured with medium alone or with medium containing various concentrations of the crosslinked CAS-024 protein, in the presence or absence of various concentrations of doxorubicin, vincristine, or fludarabine. Cultures were incubated for 96 hours and growth inhibition was assessed using an ATP viable cell detection system (i.e., viable cells quantified by ATP release).
A numerical value, assigned to each drug combination at predefined dose levels, enabled quantitative drug/drug interaction comparisons between different drug combinations. Results were expressed as combination indices (CI) vs. effect level, in which effect level represented percent inhibition of cell growth. The mean CI±SEM for each effect level was averaged over three experiments. A CI<1.0 was considered synergy, CI=1.0 additivity, and CI>1.0 antagonism.

Rec-1 cells [6] = experiment: Rec-1 growth inhibition (ATPlite), combination index with bendamustine; type: cell-based, human; settings: crosslinked CAS024 combined with bendamustine; 96 hr
Method: (§1) The final volume in each well was 150 μL.

SU-DHL-6 cells = experiment: SU-DHL-6 growth inhibition (ATPlite), combination index; type: cell-based, human
Method: as §1

[7] = test system: DOHH2 human tumor xenograft; experiment: Dose response in established subcutaneous DOHH2 xenograft model in SCID mice; settings: days 0, 4, 8
Method: The objective of this experiment was to examine the dose response to treatment with CAS-024 in a model of established subcutaneous human tumor (DOHH2) xenograft model in SCID mice.
On day 8 post-tumor inoculation, palpable tumors were apparent in a majority of mice. The tumor-bearing mice were sorted into four groups with equivalent mean tumor volumes (n=14 per group; 2 cages of 5 mice and 1 cage of 4 mice for each group). The day of the sort was defined as day 0. Tumor diameters were determined with a pair of calipers and tumor volumes were calculated using the formula: V=½[length×(width)^2].
Tumor-bearing groups of SCID mice were treated on days 0, 4, and 8 via IP injection of 0.2 mL of PBS containing 200 μg of huIgG (negative control) or 200, 100, 30, 10, or 3 μg of CAS-024. The two lowest dose solutions of CAS-024 were prepared on the day of injection to avoid the need to add a carrier protein to the most dilute solutions.
Dose solutions were prepared in similar volumes and the contents of the tubes were noted on removable labels. An investigator who was not treating or assessing the mice placed a color code on each tube and noted the code and identity of the tube contents in a laboratory notebook. Mice were monitored daily by visual inspection. Weights were determined weekly, and tumor diameters were determined at least 3 times per week (M, W, F) by an observer blinded (see above) to the treatment groups. Tumor volumes were calculated as described above. Mice were euthanized if their tumor volume reached more than 1500 mm^3 (or 1200 mm^3 on Fridays). Death was not an endpoint in the tumor protocols and, unless noted otherwise, “survival” of a mouse was determined by the time it was euthanized due to its tumor volume reaching the predetermined limits.
All statistical analyses were performed using GraphPad Prism software. Significant differences in mean tumor volumes and mean relative tumor volumes were determined using a one-way ANOVA for nonparametric data (Kruskal-Wallis test) with Dunn's multiple comparison post test. To examine differences between each of the CAS-024 treated groups and the huIgG group, all groups were compared. For comparisons between the CAS-024 groups only, the huIgG group was excluded. In addition, the high and middle dose (200, 100, and 30 μg) groups were analyzed as a one data set, and the middle and low dose (30, 10, and 3 μg) groups were analyzed as another data set. Significant differences in survival of mice over time were determined using Kaplan-Meier survival analysis with a log-rank test for comparing survival curves. Significant differences in the incidence of tumor-free mice were determined using Fisher's exact test. p values<0.05 were considered significant.

CD37 [8] = molecular target: T1, CD37; experiment: FMAT competition binding assay against labeled CAS-006 on Ramos cells; set-up: CD-37 found on Ramos cells (a B-lymphoblastoid cell line derived from a Burkitt lymphoma); endogenous in cells; host or cells: Ramos cells
Source text: A competition assay was used to compare the binding affinity of different anti-CD37 specific small modular immunopharmaceutical (SMIP) molecules to CD-37 found on Ramos cells (a B-lymphoblastoid cell line derived from a Burkitt lymphoma). An SEC purified chimeric anti-CD37 SMIP molecule (CAS-006, SEQ ID NO:247) was labeled with the FMAT Blue® fluorescence dye (Applied Biosystems) and used as the standard to compete with purified unlabeled chimeric anti-CD37 SMIP molecule (positive control) and purified unlabeled humanized anti-CD37 SMIP test molecules. […] The plates were incubated at room temperature for 30 min and read on an 8200 Cellular Detection System (Applied Biosystems) gated for middle cell size and low signal.
A competition assay as described in Example 4 was used to compare the binding affinity of different mouse-human hybrid anti-CD37 SMIP molecules compared to CAS-024 binding to Ramos cells. An SEC purified chimeric anti-CD37 SMIP molecule (CAS-006, SEQ ID NO:247) was labeled with the FMAT Blue® fluorescence dye (Applied Biosystems) and used as the standard to compete with purified unlabeled chimeric anti-CD37 SMIP molecule (CAS-006, positive control) and purified unlabeled humanized anti-CD37 SMIP test molecules—-CAS-002 (SEQ ID NO:48), CAS-003 (SEQ ID NO:52), CAS-014 (SEQ ID NO:251), CAS-017 (SEQ ID NO:252), and CAS-024 (SEQ ID NO:253).

Cn1c(CCCC(=O)O)nc2cc(N(CCCl)CCCl)ccc21 [Bendamustine, 4-[5-[Bis(2-chloroethyl)amino]-1-methylbenzimidazol-2-yl]butanoic acid, reference compound]
Median Survival Time [1]: 17 days | clinical signs of toxicity [1]: scruffy coats and diarrhea

CAS-006: chimeric anti-CD37 SMIP protein (mVLmVH) with variable regions of mouse mAb G28-1, SEQ ID NO:247
blocking activity (inhibition of binding of FITC-conjugated anti-CD37) (CD37 [2]): highest level of blocking activity | combination effect with fludarabine on killing of CLL cells [3]: acts synergistically

G28-1 VH (M99F, Y102S)—VL (T25A) scFv (SSC-P) H WCH2 WCH3 [CAS-024]
Death (other than for Tumor Size Sacrifice) [4]: 1/15^f | Median Survival Time [4]: Undefined^d,e | mean tumor volume compared with human IgG treated group [4]: significantly lower than that of the human IgG treated group | combination index (CI) (Rec-1 cells [5]; crosslinked CAS-024 combined with doxorubicin): additive | combination index (CI) (Rec-1 cells [5]; crosslinked CAS-024 combined with fludarabine): < 1.0 | combination index (CI) (Rec-1 cells [5]; crosslinked CAS-024 combined with vincristine): < 1.0 | combination effect on target cell growth (CI) (Rec-1 cells [6]): synergistic inhibitory effects | combination effect on cell growth (CI) (SU-DHL-6 cells; CAS-024 combined with chlorambucil): did not result in synergistic inhibitory effects | combination effect on cell growth (CI) (SU-DHL-6 cells; crosslinked CAS024 combined with bendamustine, 96 hr): synergistically inhibited | Median Survival Time [1]: 17^b Days | clinical signs of toxicity [1]: No clinical signs of toxicity | Death (Not Due to Large Tumor Volume) ([7]; 3 μg per IP injection): 0/14 | Median Survival Time ([7]; 3 μg per IP injection, cumulative 9 μg): 19 days | Death (Not Due to Large Tumor Volume) ([7]; 10 μg per IP injection): 0/14 | Median Survival Time ([7]; 10 μg per IP injection, cumulative 30 μg): 28 days | Death (Not Due to Large Tumor Volume) ([7]; 30 μg per IP injection): 0/14 | Median Survival Time ([7]; 30 μg per IP injection, cumulative 90 μg): 35 days | Death (Not Due to Large Tumor Volume) ([7]; 100 μg per IP injection): 1/14^h | Median Survival Time ([7]; 100 μg per IP injection, cumulative 300 μg): Undefined | Death (Not Due to Large Tumor Volume) ([7]; 200 μg per IP injection): 0/14 | Median Survival Time ([7]; 200 μg per IP injection, cumulative 600 μg): Undefined^ef | effect on the growth of DOHH2 tumors ([7]; 3 to 200 μg per IP injection): dose-dependent inhibitory effect | greater affinity for CD37 than humanized VLVH anti-CD37 SMIP molecules with 16 amino acid linker (CD37 [8]; FIG. 3): ≤ 4 fold | binding affinity for CD37 compared with parent CAS-006 (CD37 [8]; competition with FMAT Blue labeled CAS-006): substantially the same affinity; also recorded: same binding affinity as CAS-006

rituximab [Rituxan ®, reference compound]
Death (other than for Tumor Size Sacrifice) [4]: 0/15 | Median Survival Time [4]: 43 days | mean tumor volume compared with human IgG treated group [4]: significantly lower than that of the human IgG treated group

— patent US9101609B2, “CD37 immunotherapeutic and combination with bifunctional chemotherapeutic thereof” (EMERGENT PRODUCT DEVELOPMENT SEATTLE, LLC, priority 2008, dated 2015)
